Measured values from publication PMC9655728, “In Vitro and In Silico Analysis of New n-Butyl and Isobutyl Quinoxaline-7-carboxylate 1,4-di-N-oxide Derivatives against Trypanosoma cruzi as Trypanothione Reductase Inhibitors” (International Journal of Molecular Sciences, 2022).

Assays:
Assay type in all cases: biochemical
[1] = target: T1, human glutathione reductase (hGR) (Homo sapiens, UniProt P00390); experiment: spectrophotometric NADPH consumption ([…] nm) with GSSG; Lineweaver-Burk and non-linear regression
T1 construct: gene GSR; recombinant human glutathione reductase
T1 sequence (P00390 44-522): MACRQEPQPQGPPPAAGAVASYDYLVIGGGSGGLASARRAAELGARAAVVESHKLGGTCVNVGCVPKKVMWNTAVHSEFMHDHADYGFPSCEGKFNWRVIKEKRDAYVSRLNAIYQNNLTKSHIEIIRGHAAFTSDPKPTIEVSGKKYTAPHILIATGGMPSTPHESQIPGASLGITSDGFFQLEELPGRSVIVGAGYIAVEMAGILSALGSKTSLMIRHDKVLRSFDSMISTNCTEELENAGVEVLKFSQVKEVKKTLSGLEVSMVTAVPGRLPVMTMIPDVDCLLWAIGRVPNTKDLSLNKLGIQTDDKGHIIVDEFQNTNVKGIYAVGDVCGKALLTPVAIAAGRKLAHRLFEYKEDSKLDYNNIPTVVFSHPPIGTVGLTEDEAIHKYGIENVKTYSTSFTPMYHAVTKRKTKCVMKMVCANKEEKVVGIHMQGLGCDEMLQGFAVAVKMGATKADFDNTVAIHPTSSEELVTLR

[2] = target: T2, trypanothione reductase (TR) (Trypanosoma brucei, UniProt P39051); experiment: spectrophotometric NADPH consumption ([…] nm) with TS2; Lineweaver-Burk and non-linear regression
T2 construct: gene TPR; recombinant Trypanosoma brucei TR
T2 sequence (P39051 whole entry): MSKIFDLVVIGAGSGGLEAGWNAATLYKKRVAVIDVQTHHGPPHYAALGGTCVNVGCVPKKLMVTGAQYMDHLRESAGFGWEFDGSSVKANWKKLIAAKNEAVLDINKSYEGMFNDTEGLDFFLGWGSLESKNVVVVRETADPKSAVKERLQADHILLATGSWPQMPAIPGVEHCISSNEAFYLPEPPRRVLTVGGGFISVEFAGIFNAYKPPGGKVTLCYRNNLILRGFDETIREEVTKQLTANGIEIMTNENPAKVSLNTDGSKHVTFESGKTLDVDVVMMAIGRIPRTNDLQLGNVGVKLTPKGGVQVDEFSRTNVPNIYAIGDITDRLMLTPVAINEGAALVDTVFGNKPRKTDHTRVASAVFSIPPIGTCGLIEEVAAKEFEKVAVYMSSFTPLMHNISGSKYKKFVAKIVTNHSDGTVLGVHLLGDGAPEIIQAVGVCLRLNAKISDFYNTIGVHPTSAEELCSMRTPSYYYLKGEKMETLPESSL

[3] = target: T2, trypanothione reductase (TR); experiment: spectrophotometric NADPH consumption ([…] nm) with TS2; % inhibition at […] ([…] TS2); details: read-out: % Inhibition of TR / 44 μM [TS2]

Row | SMILES | Ki [1] | Ki [2] | inhibition at 20 µM [3]
1 | CCCCOC(=O)c1ccc2c(c1)[n+]([O-])c(C(=O)C(C)(C)C)c(C(F)(F)F)[n+]2[O-] [T-147] | 25 µM | 11.4 µM | –
2 | CCCCOC(=O)c1ccc2c(c1)[n+]([O-])c(C(=O)c1ccccc1)c(C(F)(F)F)[n+]2[O-] [T-148] | – | – | 36%
